According to US9243036B2, “Anti-microbial activity of synthetic peptides” (THE UNITED STATES OF AMERICA, as represented by the …, priority 2012, dated 2016):
Entries after “also recorded” stand apart in the source; their conditions may differ. Residues, ends and D or L forms follow the SMILES beside them.

Tests used:
P. aeruginosa [1] = assay: 2 h incubation of mid-logarithmic cultures with peptide, CFU on NA plates; format: cell-based; conditions: peptide 12.5, 25 and 50 μg/ml, inoculum 10^5 CFU/ml
Procedure: (§1) Mid-logarithmic phase cultures of bacteria with an inoculum of 10^5 CFU/ml were incubated with peptide concentrations ranging from 0 to 50 μg/ml in a shaker incubator for 2 h following which the samples were plated on NA agar plates and CFU determined.

E. coli [2] = assay: as above; format: cell-based; conditions: peptide 12.5, 25 and 50 μg/ml, inoculum 10^5 CFU/ml
Procedure: as §1

other bacteria tested = assay: as above; format: cell-based; conditions: even at 50 μg/ml
Procedure: All bacterial strains used in this study originated from ATCC (Manassas, Va.): S. aureus (ATCC 25923; ATCC 35548), S. epidermidis (ATCC 35983), E. coli (ATCC 700928; ATCC 25922), P. aeruginosa (ATCC 27853; ATCC 12121), K pneumoniae (ATCC 10031; ATCC 13885) and B. cereus (ATCC 11778). Cultures were maintained and subcultured periodically on nutrient agar plates and stored at 4 to 8° C. until tested. Stock cultures of all bacteria were stored in tryptic soy broth with 10% glycerol at −70° C. Log-phase cultures of bacteria grown in Miller's Luria-Bertani (LB) broth (Mediatech Inc, Herndon, Va.) were concentrated by centrifugation at 3000×g and dilutions were prepared with phosphate-buffered saline (PBS; pH 7.4) (Mediatech Inc, Herndon, Va.). In all experiments bacterial titers were estimated by optical density and confirmed by quantitative culture by plating on nutrient agar (NA) plates.
as §1

P. aeruginosa [3] = assay: Anti-bacterial activity in spiked platelets; format: cell-based; conditions: EC5 25 and 12.5 μg/ml; 2 h
Procedure: (§2) The anti-bacterial activity of the peptide in the presence of homologous plasma and platelets were assessed. Platelet Concentrates (PCs) in bags were obtained and stored at room temperature as described earlier (Mohan, K. V. et al., (2010) Transfusion 50, 166-173). Plasma was isolated from the PC bag by collecting 25 ml of PCs and subjecting the sample to a low speed centrifugation step to separate PLT-rich plasma from plasma. For assays log phase cultures of bacteria grown in Luria-Bertani (LB) broth were centrifuged at 3000×g and suspended in 1×PBS pH7.4. Bacterial titers were estimated by measuring the optical density (OD) and microscopy. Approximately 10^5 CFU/ml of each bacterial strain was spiked into 0.1 ml of plasma or platelets and incubated with peptide at concentrations ranging from 50 to 0 μg/ml. Incubation was carried out at room temperature for 2 h on a shaker. At the end of 2-h exposure period, a fixed volume of the suspension was plated on NA plates, and incubating at 37° C. for 18 to 24 h. Bactericidal activity was measured by log-reduction by viable bacteria.

K pneumoniae = assay: Anti-bacterial activity in spiked platelets; format: cell-based; conditions: 2 h
Procedure: as §2

B. cereus = assay: Anti-bacterial activity in spiked platelets; format: cell-based; conditions: even at high concentrations
Procedure: as §2

S. aureus [4] = assay: Anti-bacterial activity in spiked platelets; format: cell-based; conditions: even at high concentrations
Procedure: as §2

S. epidermidis = assay: Anti-bacterial activity in spiked platelets; format: cell-based; conditions: even at high concentrations
Procedure: as §2

E. coli [5] = assay: Anti-bacterial activity in spiked platelets; format: cell-based; conditions: 2 h
Procedure: as §2

P. aeruginosa cells = assay: Qdot-based fluorometry binding assay; conditions: EC5 50 μg/ml
Procedure: (§3) The assay was carried out as described earlier (21,24). Bacterial cell suspensions at a concentration of 10^3 CFU were incubated with EC5 (50 μg/ml) in an eppendorf tube at room temperature for 60 min. Following three washes with 1×PBS pH 7.4 the pellet was resuspended in […] of 1:10,000 dilution of streptavidin-conjugated Q dots (QD 605) solution (Invitrogen, Gaithersburg, Md.). The fluorometric counts were measured using SYNERGY 4™ BioTek micro plate reader (BioTek Instruments, Winooski, Vt.).
(§4) Binding of the peptide to the bacteria was detected using Qdot-nanocrystal cores conjugated to streptavidin. Analysis of the bacterial suspension binding to the peptide was performed in a micro-well plate using a fluorescence plate reader (SYNERGY 4™, Biotek, USA). Excitation was set to a spectral range of 360-485 nm and emission was at 605 nm. […] The analysis also confirmed that EC5 binds to P. aeruginosa cells.

E. coli [6] = assay: Qdot-based fluorometry binding assay; conditions: EC5 50 μg/ml; p<0.0001
Procedure: as §3, §4

P. aeruginosa [7] = assay: Membrane permeability by PI and SYTO9 uptake (LIVE/DEAD BACLIGHT); format: cell-based; conditions: SYTO9 and PI staining
Procedure: (§5) The effects of EC5 on the membrane integrity of E. coli and P. aeruginosa cells were assessed using the LIVE/DEAD BACLIGHT™ kit (Invitrogen, Oregon) according to the manufacturer's protocol. Membrane integrity of the cells after the addition of different concentrations of peptide EC5 was measured using fluorescence micro plate reader (BioTek Instruments, Winooski, Vt.). Experiments were done in triplicates. PMB was used as a positive control.
(§6) The membrane permeabilizing activity of EC5 was also studied using the SYTO9 and PI staining method. SYTO9 stain labels both live and dead bacteria when alone, but propidium iodide stains only cells with damaged membranes, reducing the level of green fluorescent SYTO9 when both the dyes are present. […] The ratio of green versus red fluorescence can be calculated as a measure of live bacteria. […] Polymyxin B, an AMP with a net charge of +5 with membrane permeabilizing activity was used as positive control.

E. coli [8] = assay: as above; format: cell-based; conditions: SYTO9 and PI staining
Procedure: as §5, §6

S. aureus [9] = assay: MIC by standard dilution assay (CLSI); format: cell-based
Procedure: In vitro anti-bacterial activity of EC5. The test microorganisms mentioned earlier in the experimental procedures were used to evaluate the bactericidal activity of EC5 peptide. The minimum inhibitory concentrations (MICs) of the peptide were determined by standard dilution assay as recommended by Clinical and Laboratory Standard Institutes (CLSI) guidelines (Azad, M. A., et al., (2011) Antimicrob. Agents Chemother. 55, 2137-2145). Bacteria were grown to mid-logarithmic phase in cation-supplemented Mueller-Hinton broth (MHB) (Becton Dickinson, Sparks, Md.) on an orbital shaker (37° C.) and diluted to a 0.5 McFarland standard to a final volume of 1 ml. Decreasing concentrations of the peptide were incubated with the microorganisms. Results were recorded by visual inspection after 24 h of incubation at 37° C. Assay was repeated three separate times to ensure reproducibility. […] EC5 concentrations 0x, 0.5x, 1x, and 2×MIC were incubated with logarithmic phase of bacteria of approximately 10^5 CFU/ml in an orbital shaker for 48 h at 37° C. Samples were drawn and plated on NA plates. Polymyxin B was used as a positive control and peptide with no anti-bacterial activity from our previous studies was used as a negative control.

CC[C@H](C)[C@H](NC(=O)[C@H](CCCCN)NC(=O)[C@H](CCCNC(=N)N)NC(=O)[C@H](Cc1ccccc1)NC(=O)[C@H](CC(C)C)NC(=O)[C@H](CC(C)C)NC(=O)[C@@H](N)CCCNC(=N)N)C(=O)N[C@@H](CCCNC(=N)N)C(=O)N[C@@H](CCCNC(=N)N)C(=O)N[C@@H](CC(C)C)C(=O)N[C@@H](CCCCN)C(=O)N[C@@H](CCCNC(=N)N)C(=O)O [EC5, RLLFRKIRRLKR] (H-RLLFRKIRRLKR-OH; N-terminus and C-terminus assumed)
reduction of P. aeruginosa (P. aeruginosa [1]): 5 log10 CFU/ml | reduction of E. coli (E. coli [2]): 5 log10 CFU/ml | activity against the other bacteria tested (other bacteria tested): no activity | reduction of P. aeruginosa in platelets (P. aeruginosa [3]): 4 log10 CFU/ml | reduction of K pneumoniae in platelets (K pneumoniae; EC5 12.5 μg/ml): 1 log10CFU/m | reduction of K pneumoniae in platelets (K pneumoniae; EC5 25 μg/ml): 1.5 log10CFU/m | reduction of K pneumoniae in platelets (K pneumoniae; EC5 50 μg/ml): 2.5 log10CFU/m | reduction of B. cereus in platelets (B. cereus): No significant reduction | reduction of S. aureus in platelets (S. aureus [4]): No significant reduction | reduction of S. epidermidis in platelets (S. epidermidis): No significant reduction | reduction of E. coli in platelets (E. coli [5]; EC5 12.5 μg/ml): 4.5 log10 CFU/ml | E. coli colonies in platelets (E. coli [5]; EC5 50 and 25 μg/ml): no detectable E. coli colonies; also recorded: complete inhibition | binding to P. aeruginosa cells (fluorometric counts) (P. aeruginosa cells): binds | binding to E. coli (fluorometric counts) (E. coli [6]): able to bind | concentration showing maximum permeability of cells (P. aeruginosa [7]): 12.5 µg/mL | concentration showing maximum permeability of cells (E. coli [8]): 6.25 µg/mL | activity against S. aureus (S. aureus [9]): not active
